Two compounds from article PMC10987501, “The antihyperglycemic potential of pyrazolobenzothiazine 1, 1-dioxide novel derivative in mice using integrated molecular pharmacological approach” (Scientific Reports, 2024) can be followed below.

Series [1] concerns α-glucosidase. The experiment in a line: α-glucosidase inhibition assay (PNPG substrate). Format: biochemical. The following applies: for α-glucosidase % inhibition: 10 μL (500 µM) sample. The method, then:
To carry out this reaction, 10 μL (500 µM) of 10 mM sample solution (prepared in DMSO) was added to ELISA 96 microwell plate. Then, 40 μL of 0.5U/ml α glucosidase was mixed by adding 120 μL of 0.1M phosphate buffer with a pH value of 7.4. The solution was incubated at 37 °C for 5 min. The reaction proceeded further by adding 40 μL of 5 mM substrate solution (PNPG) and incubation was done for half an hour at 37 °C. After performing the incubation microplate reader was used to read the absorbance of the reaction mixture at 405 nm wavelength. […] The inhibition percentage of the sample and positive control were calculated using the following formula. Inhibition%=B-S/B∗100
(§1) At this point, the B and S denote absorbance for the blank and samples. Blank contains only DMSO instead of sample.

In series [2] the test system is BALB/c mice. Briefly: Biochemical investigation of blood in alloxan-induced diabetic mice. Format: in vivo. Details: Serum insulin level: unit not given here. The following applies: for Serum creatinine / Cholesterol in blood / HbA1c, % of glycated haemoglobin: treated group; for Serum creatinine: diabetic control 1.9 mg/dL; for Cholesterol in blood: diabetic control 120 mg/dL; for HbA1c, % of glycated haemoglobin: diabetic control 9%; for Serum insulin level: normal mice about 15 µM/L. The method, then: (§2) All experimental protocols adhered to the guidelines outlined in the NIH Guide for Care and Use of Laboratory Animals and the ARRIVE guidelines for animal experimentation. The Animal Care and Use Committee (ACUC) of Government College University Faisalabad (GCUF-2021-09) provided approval for the study. For in vivo study, BALB/c mice (weight 26–33 g) were acquired from the Department of Pharmacy and kept in the optimized environment (12 h dark, 12 h light) with a regular pellet diet and normal tab water. Diabetes induction in mice was done through a standard protocol reported by[21] with slight amendments. Alloxan monohydrate 150 mg/kg (following the body weight of mice) was liquified in normal saline and injected intraperitoneally in mice fasted for 16 h[22],[23]. Furthermore, screening of mice was done based on their blood glucose levels and mice with blood glucose levels more than 1.26 g/L were considered diabetic, and therefore taken for further experiment/examination. The mice diagnosed with diabetes were classified into five groups and five mice in each group. […] Two doses were selected because they indicate how the organism's response changes at different levels of exposure. This information is crucial for determining safe dosage levels for humans or animals.
For biochemical testing and histological examination, mice from each group were collected, and data were produced for different testing parameters, including fasting blood glucose, serum creatinine, serum insulin, HbA1c, triglyceride and cholesterol. A Countour TS glucometer was used to measure mice's fasting blood glucose levels. While Clinical Chemistry Reagents SRL (CCR) kit was used to measure serum creatinine and triglyceride levels. Moreover, the VITRO SCIENT kit was utilized to measure the serum insulin, cholesterol and HbA1c levels. For histological analysis, mice were sacrificed and their organs (liver, kidney and pancreas) were washed with cold saline and preserved in a 10% formalin solution. A compound microscope from the Department of Physiology, Government College University Faisalabad, was used for tissue investigation under a controlled and organized environment. Pictures of tissue samples were taken through OPTIKA software.

The test system of series [3] is α-glucosidase. Briefly: Kinetics study (α-glucosidase), Lineweaver–Burk plot. Format: biochemical. The method, then: (p-nitrophenyl-α-D-glucoside) was used for reaction. In addition, varying concentrations (0.1 mM, 0.25 mM, 0.5 mM, 0.75 mM, 1 mM) sample/inhibitor [V] was used. The type of inhibition was determined by the Lineweaver–Burk plot, while the Michaelis Menten equation was used to find the value of the inhibition constant. Vo=VmaxS/Km+S 1/Vo=Km+S/VmaxS=km/Vmax1/S+1/Vmax
The initial rate of reaction is indicated by V0, Michaelis Menten's constant signifies km, Km/Vmax represents to slope, and 1/Vmax denotes the y-intercept. The value of the inhibitory constant was calculated by plotting the secondary graph. Straight-line produced by slope versus [V] intersecting x-axis indicates ki value while ki′ was produced by intersecting line plotted between y-intercept and [V].

The subject of series [4] is α-amylase. Briefly: α-amylase inhibition assay (starch substrate, DNSA). Format: biochemical. The method, then: ELISA plate was used for inhibition assay and it was loaded with 40 µL of the sample. Enzyme prepared in 0.02 M sodium phosphate buffer with pH 6.9 (40 µL) was further added to wells. The solution in wells was kept on incubation at 37 °C for 10 min. Moreover, 40 µL starch solution prepared in 1% DMSO was added to the solution and put on incubation for 10 min at 25 °C. At last, to stop the reaction, 100 µL of DNSA reagent was added to the solution. The mixture was put in a boiling water bath for 5 min and cooled down at room temperature after incubation. For dilution of the reaction mixture, 400 µL of distilled water was added to the solution, and the absorbance of the reaction mixture was measured at 540 nm wavelength. To calculate the percentage inhibition the following formula was used. Inhibition%=B-S/B∗100
as §1

Series [5] has as its system BALB/c mice. Briefly: Histology of liver, kidney and pancreas and side effects in alloxan-induced diabetic mice. Format: in vivo. The method, then:
as §2, with “animals. […]” for “animals.”

Series [6] relates to α-amylase. Briefly: Kinetics study (α-amylase), Lineweaver–Burk plot. Format: biochemical. The method, then: Varying concentrations (0.25%, 0.5%, 1%, 1.5%, 2%) of substrate [S] (starch) were used with constant enzyme concentration. Same as substrate, varying concentration (1 mM, 3 mM, 5 mM, 7 mM, 9 mM) of the inhibitor [V] was used. Lineweaver–Burk plots were used to determine the type of enzyme inhibition and the Michaelis Menten equation was used to find the value of inhibition constant. Vo=VmaxS/Km+S 1/Vo=Km+S/VmaxS=km/Vmax1/S+1/Vmax
The initial reaction rate is indicated by V0, Michaelis Menten's constant signifies km, Km/Vmax represents slope, and 1/Vmax denotes the y-intercept. The value of the inhibitory constant was calculated by plotting the secondary graph. Straight-line produced by slope versus [V] intersecting x-axis indicates ki value while ki′ was produced by intersecting line plotted between y-intercept and [V].

By IC50 is commonly meant the concentration that inhibits the measured activity by half.

“Also recorded” adds a separate entry of the source.

`C[C@H]1O[C@H](O[C@H]2[C@H](O)[C@@H](O)[C@@H](O[C@H]3[C@H](O)[C@@H](O)C(O)O[C@@H]3CO)O[C@@H]2CO)[C@H](O)[C@@H](O)[C@@H]1N[C@H]1C=C(CO)[C@@H](O)[C@H](O)[C@H]1O` (some centres unmarked) [Acarbose, reference compound] gave a α-glucosidase % inhibition in the series with α-glucosidase [1] of 37 ± 0.026%. For the same compound, in the series on BALB/c mice [2], the Serum creatinine is given as 0.8 mg/dL; the Cholesterol in blood worked out at 100 mg/dL; the “HbA1c, % of glycated haemoglobin” value is reported as 5%. The “Type of inhibition, α-glucosidase” value in the series on α-glucosidase [3] is listed as “competitive inhibition”. Further, the α-amylase % inhibition in the series with α-amylase [4] is recorded as 33 ± 0.042%.
As for `C/C(=N\NC(=O)C1=C(O)c2ccccc2S(=O)(=O)N1)c1ccccc1` [Compound S1, (E)-4-Hydroxy-N′-(1-phenylethylamine)-2H-benzo[e][1,2]thiazine-3-carbohydrazide1,1-dioxide], inhibition at α-glucosidase [1] was half-maximal at 3.91 µM (IC50). This compound also displayed a α-glucosidase % inhibition in the series with α-glucosidase [1] (500 µM) of 55 ± 0.047%. Also, the Serum insulin level in the series with BALB/c mice [2] (double dose (7.8 mg/kg)) is on record as 30. Also, in the series with BALB/c mice [2] (single and double doses (3.9 and 7.8 mg/kg), diabetic control > 300 mg/dL), the “Fasting blood sugar level” value worked out at 110 mg/dL. The compound further yielded a Serum insulin level in the series on BALB/c mice [2] (single dose (3.9 mg/kg)) of 25. In addition, in the series with BALB/c mice [2], the Serum creatinine is reported as 0.6 mg/dL; the Cholesterol in blood is listed as 85 mg/dL; the “HbA1c, % of glycated haemoglobin” value came to 3%. Further, in the series on BALB/c mice [5] (after administration to mice), the “Side effects in the mice model” value is “no significant side effect”. In the series with BALB/c mice [5] (diabetic mice dissected after 21 days of treatment), the “Histology: necrosis / toxicity in liver, kidney and pancreas” value is “low necrosis rate; also recorded: less toxic in the kidney, liver, and pancreas; also recorded: no toxicity within the liver and pancreatic tissues; also recorded: minimum rate of necrosis and toxicity”. For the same compound, in the series with α-glucosidase [3], the “Type of inhibition, α-glucosidase” value is “competitive type of inhibition; also recorded: competitively”. On α-amylase [4], this compound registered an IC50 of 8.89 µM and a α-amylase % inhibition of 46 ± 0.091%. Also, the “Type of inhibition, α-amylase” value with α-amylase [6] is listed as “competitive type of inhibition; also recorded: competitively”.
